The source of these data is paper PMC6068397 (ACS nano, 2018).

Experiment [1] has as its system water-soluble μ-opioid receptor (wsMOR). The class given is binding, human. The settings on record: 1× PBS.
Experiment [2] deals with native MOR. The settings on record: optical assays; cited from earlier work.
Experiment [3] concerns water-soluble μ-opioid receptor (wsMOR). Description: wsMOR-functionalized graphene field-effect transistor. The class given is binding, human. The note with it: GFET, 1 nM oxytocin solution.
In experiment [4] the test system is native MOR. The note with it: cited from earlier work.

“Also recorded” adds a separate entry of the source.

On to β-endorphin, for which, in experiment [1] (larger than the amplitude found for enkephalin), the “Ratio of amplitude A, β-endorphin to enkephalin” value is recorded as ~ 1.6 times. In addition, the Limit of detection entry in experiment [1] (physiological ionic strength) was “picomolar range; also recorded: picomolar level”.
Turning to [D-Ala^2, N-MePhe^4, Gly-ol]-enkephalin, the “KA, binding between native MOR and enkephalin” value on native MOR [2] was 1.2−3.1 nM.
For oxytocin, in experiment [1] (concentrations below 1 μM, graphene microelectrode), the “Response of the biosensor (selectivity, negative control)” value is on record as “essentially negligible”. For the same substance, the “Level of nonspecific binding to wsMOR” value in experiment [3] was “low level of nonspecific binding”. For the same substance, the “Sensor response (shift of the Dirac voltage, ΔVD)” value in experiment [3] (negative control) was determined as 0.17 V. Besides, in the experiment on native MOR [4], the “Specific binding to native MOR” value is recorded as “known not to bind specifically to native MOR”.
